For experiment [1], the target named is T1, Protein mono-ADP-ribosyltransferase PARP3 (Homo sapiens, UniProt Q9Y6F1).
T1 sequence (Q9Y6F1 whole entry): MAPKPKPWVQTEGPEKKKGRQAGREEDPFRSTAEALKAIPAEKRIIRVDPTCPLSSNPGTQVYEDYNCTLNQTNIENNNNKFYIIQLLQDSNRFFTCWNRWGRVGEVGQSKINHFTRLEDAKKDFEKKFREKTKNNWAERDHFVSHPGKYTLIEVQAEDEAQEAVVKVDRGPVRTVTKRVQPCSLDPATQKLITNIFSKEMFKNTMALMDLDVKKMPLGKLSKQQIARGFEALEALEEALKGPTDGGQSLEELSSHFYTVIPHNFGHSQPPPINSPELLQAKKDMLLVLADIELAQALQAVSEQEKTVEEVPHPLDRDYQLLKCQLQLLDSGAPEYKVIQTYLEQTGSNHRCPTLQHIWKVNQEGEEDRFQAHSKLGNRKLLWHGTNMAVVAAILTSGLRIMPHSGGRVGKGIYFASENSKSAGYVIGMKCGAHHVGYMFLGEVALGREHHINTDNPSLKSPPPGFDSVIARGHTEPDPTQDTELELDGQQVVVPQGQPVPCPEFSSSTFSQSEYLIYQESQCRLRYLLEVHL
As to the kind of experiment: Inhibition of human ARTD3 by fluorescence analysis.

For experiment [2], the target named is Poly [ADP-ribose] polymerase 1 (Homo sapiens, UniProt P09874). As to the kind of experiment: Inhibition of human ARTD1 by fluorescence analysis.
For experiment [3], the target named is Protein mono-ADP-ribosyltransferase PARP14 (Homo sapiens, UniProt Q460N5). As to the kind of experiment: Inhibition of human ARTD8 by fluorescence analysis.
The target of experiment [4] is T2, Tankyrase 1/2 (Homo sapiens, UniProt Q9H2K2+O95271).
T2 sequence (Q9H2K2 whole entry): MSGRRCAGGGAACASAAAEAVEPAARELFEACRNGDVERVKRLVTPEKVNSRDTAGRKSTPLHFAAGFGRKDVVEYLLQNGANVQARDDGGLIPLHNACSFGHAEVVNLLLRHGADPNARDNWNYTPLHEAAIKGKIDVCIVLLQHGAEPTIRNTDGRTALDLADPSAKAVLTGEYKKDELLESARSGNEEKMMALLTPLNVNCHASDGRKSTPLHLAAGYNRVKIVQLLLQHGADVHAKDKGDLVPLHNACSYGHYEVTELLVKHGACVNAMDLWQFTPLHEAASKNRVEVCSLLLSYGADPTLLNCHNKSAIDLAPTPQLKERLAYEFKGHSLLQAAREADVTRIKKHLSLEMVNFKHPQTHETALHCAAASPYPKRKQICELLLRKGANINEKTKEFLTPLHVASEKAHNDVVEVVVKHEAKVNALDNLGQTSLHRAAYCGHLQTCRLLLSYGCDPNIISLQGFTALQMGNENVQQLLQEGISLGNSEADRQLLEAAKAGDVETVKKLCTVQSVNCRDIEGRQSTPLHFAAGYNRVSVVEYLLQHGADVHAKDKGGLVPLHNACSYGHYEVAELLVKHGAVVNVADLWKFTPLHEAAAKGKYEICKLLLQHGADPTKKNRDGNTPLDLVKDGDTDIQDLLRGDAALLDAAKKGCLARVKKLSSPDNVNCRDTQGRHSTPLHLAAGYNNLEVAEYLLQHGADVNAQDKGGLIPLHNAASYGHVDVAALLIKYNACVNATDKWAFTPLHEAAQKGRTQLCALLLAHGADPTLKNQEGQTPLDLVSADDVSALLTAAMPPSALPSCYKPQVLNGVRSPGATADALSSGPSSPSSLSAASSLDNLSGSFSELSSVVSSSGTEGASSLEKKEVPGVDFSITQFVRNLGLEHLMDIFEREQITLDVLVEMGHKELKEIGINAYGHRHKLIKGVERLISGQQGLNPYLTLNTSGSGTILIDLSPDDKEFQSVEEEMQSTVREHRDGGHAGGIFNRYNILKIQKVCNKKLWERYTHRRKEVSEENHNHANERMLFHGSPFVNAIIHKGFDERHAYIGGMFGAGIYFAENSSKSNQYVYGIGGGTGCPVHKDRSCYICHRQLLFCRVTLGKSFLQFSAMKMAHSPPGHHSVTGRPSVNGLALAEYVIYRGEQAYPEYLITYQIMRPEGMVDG
T2 sequence (O95271 whole entry): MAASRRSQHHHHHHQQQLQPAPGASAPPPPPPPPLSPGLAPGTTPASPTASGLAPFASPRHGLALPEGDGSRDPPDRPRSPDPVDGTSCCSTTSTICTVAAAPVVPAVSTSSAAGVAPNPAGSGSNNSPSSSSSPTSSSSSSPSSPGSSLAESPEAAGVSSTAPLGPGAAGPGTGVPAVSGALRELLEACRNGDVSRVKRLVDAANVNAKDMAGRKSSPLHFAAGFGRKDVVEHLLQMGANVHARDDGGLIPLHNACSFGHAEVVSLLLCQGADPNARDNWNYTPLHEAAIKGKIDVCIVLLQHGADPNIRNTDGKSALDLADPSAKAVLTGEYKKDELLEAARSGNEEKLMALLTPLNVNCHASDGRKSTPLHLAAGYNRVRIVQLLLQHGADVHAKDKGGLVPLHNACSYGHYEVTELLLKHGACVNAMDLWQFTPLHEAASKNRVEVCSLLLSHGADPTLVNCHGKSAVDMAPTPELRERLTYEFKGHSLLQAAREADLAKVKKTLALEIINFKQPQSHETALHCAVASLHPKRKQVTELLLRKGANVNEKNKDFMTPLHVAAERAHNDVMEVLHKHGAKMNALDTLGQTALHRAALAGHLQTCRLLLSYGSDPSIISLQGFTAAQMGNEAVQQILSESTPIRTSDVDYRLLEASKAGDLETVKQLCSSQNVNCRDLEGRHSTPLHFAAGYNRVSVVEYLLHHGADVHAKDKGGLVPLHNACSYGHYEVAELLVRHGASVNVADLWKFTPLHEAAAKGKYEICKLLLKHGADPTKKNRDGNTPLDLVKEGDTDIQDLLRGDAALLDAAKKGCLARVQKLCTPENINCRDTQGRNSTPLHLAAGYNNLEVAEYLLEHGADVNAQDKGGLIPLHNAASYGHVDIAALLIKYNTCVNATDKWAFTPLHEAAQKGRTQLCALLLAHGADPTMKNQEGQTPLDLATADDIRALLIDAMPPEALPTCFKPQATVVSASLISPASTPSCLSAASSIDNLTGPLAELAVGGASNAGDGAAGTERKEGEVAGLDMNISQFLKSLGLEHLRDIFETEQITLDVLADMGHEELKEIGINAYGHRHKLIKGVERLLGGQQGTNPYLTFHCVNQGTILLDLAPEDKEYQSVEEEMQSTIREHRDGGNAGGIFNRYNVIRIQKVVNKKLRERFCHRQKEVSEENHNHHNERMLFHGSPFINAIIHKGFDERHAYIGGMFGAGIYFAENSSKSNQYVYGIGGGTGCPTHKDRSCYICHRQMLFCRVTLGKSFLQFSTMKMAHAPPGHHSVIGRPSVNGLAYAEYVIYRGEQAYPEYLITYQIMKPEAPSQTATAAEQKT
Nature of the experiment: Inhibition of tankyrase in WNT3a-stimulated human HEK293 cells by luciferase reporter gene assay. Format: cell-based.

Bounds are passed on as bounds.

Sequence of Poly [ADP-ribose] polymerase 1 (P09874 whole entry): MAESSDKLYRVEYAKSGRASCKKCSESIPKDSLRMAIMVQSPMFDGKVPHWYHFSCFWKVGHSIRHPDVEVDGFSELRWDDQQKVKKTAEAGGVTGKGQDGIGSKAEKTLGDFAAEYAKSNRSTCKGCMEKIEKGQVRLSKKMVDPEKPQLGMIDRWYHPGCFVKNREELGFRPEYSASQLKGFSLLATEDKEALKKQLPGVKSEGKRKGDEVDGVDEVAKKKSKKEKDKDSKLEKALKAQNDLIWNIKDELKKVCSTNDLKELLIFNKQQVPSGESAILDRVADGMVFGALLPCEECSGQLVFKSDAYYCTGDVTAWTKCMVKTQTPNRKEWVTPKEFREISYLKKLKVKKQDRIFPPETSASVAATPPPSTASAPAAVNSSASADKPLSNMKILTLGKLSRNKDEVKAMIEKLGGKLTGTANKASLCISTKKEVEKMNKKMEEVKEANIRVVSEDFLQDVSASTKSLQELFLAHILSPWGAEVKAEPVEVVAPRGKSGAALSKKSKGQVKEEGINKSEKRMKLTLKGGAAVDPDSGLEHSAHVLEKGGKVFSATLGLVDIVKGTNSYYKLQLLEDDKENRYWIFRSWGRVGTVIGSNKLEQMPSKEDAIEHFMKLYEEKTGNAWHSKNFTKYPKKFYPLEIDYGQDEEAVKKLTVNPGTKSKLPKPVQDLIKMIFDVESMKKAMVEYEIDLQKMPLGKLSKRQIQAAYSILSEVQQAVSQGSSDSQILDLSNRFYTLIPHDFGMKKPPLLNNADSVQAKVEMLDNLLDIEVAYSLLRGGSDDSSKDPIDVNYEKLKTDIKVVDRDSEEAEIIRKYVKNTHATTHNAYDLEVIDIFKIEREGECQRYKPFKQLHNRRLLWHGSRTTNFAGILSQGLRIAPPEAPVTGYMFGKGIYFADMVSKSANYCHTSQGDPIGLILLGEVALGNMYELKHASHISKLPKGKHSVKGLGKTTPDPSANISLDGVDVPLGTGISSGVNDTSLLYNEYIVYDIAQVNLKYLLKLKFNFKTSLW
Sequence of Protein mono-ADP-ribosyltransferase PARP14 (Q460N5 whole entry): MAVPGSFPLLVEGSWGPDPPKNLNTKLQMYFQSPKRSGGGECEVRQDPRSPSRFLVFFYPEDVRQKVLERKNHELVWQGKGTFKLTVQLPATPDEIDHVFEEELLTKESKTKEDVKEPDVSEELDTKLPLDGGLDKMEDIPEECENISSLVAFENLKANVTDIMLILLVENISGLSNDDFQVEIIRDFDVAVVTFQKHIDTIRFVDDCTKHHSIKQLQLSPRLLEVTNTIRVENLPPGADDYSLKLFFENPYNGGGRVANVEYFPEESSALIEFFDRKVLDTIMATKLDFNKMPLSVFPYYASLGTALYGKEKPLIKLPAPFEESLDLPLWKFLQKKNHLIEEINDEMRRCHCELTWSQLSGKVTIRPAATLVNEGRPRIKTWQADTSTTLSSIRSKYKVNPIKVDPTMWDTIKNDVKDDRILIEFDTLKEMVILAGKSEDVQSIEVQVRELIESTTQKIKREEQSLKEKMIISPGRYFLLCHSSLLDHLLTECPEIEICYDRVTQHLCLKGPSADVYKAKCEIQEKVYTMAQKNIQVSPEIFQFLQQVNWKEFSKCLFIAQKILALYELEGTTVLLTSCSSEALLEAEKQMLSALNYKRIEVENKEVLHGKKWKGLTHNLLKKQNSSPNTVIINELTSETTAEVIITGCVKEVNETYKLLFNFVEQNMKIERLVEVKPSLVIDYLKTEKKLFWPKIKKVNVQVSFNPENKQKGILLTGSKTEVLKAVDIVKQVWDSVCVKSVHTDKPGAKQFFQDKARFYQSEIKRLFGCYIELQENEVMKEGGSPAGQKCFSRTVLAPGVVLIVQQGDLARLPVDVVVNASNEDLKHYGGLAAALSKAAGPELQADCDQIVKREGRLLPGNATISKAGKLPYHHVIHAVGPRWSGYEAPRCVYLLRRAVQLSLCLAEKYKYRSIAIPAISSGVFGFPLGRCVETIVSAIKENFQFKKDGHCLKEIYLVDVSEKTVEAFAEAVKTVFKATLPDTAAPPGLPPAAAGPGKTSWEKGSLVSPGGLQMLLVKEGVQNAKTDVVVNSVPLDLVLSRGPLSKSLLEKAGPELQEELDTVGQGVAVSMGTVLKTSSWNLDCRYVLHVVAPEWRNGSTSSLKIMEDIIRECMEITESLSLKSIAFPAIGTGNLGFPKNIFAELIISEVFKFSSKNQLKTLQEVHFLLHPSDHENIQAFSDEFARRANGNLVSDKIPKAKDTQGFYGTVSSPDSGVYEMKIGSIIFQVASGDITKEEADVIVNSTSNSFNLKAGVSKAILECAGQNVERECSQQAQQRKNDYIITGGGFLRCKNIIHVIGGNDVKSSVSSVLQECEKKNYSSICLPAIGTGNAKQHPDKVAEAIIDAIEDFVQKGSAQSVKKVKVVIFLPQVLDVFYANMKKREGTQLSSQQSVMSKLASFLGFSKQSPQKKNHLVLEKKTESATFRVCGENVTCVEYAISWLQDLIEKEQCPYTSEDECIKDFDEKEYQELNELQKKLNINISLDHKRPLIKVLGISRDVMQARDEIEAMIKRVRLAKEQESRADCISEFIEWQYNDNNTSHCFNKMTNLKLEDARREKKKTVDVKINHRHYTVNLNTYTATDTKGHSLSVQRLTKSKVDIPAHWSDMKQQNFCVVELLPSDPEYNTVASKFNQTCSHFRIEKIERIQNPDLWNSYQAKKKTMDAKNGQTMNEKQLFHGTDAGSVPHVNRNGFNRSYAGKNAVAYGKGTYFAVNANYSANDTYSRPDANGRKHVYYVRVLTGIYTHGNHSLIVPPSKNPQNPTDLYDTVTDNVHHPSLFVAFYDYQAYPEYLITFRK

Turning to `COc1ccc(C2(CNC(=O)c3ccc(NC(=O)c4ccco4)cc3Cl)CCOCC2)cc1`, the IC50 in experiment [1] is > 100 µM; in experiment [2], > 100 µM; in experiment [3], > 10 µM; in experiment [4], 0.36 µM.

As a reminder, the IC50 is the midpoint of a concentration-inhibition curve. Read a high IC50 as lower potency.
